Source: publication PMC5884943, “Discovery of Novel Inhibitors of Indoleamine 2,3-Dioxygenase 1 Through Structure-Based Virtual Screening” (Frontiers in Pharmacology, 2018)
Where two headings read alike, the source gives them in different places.

Key:
IDO1 in HeLa cells = target: T1, IDO1 in HeLa cells (Homo sapiens, UniProt P14902); test: HeLa cellular IDO1 assay (kynurenine OD 480 nm after IFN-γ); type: cell-based; conditions: IDO1 inhibition in HeLa cells, 48 h
T1 construct: endogenous in cells; host or cells: HeLa (ATCC CCL-2), stimulated with recombinant human IFN-γ
T1 sequence (P14902 whole entry): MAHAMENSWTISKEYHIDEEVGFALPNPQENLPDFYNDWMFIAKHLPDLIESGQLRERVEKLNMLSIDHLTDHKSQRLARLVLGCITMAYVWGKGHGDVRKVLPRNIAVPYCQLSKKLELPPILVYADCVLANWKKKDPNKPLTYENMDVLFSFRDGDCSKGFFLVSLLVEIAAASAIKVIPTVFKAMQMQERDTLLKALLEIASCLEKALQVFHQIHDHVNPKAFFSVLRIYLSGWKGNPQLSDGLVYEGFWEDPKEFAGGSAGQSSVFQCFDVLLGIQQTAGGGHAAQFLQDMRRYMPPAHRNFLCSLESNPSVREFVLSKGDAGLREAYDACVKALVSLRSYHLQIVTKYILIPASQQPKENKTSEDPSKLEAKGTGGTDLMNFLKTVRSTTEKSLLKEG
Experimental: We chose HeLa cell line (ATCC, Cat. No. CCL-2, 4965442) to detect whether our compounds could inhibit IDO activity at cellular level by optical density (OD) assay. The assay was performed in 96-well flat bottom plate (CORNING, Cat. No. 3903) seeded with 5,000 cells in a final volume of 100 μL. Each well 80 μL HeLa cells were incubated overnight at 37°C in EMEM (Invitrogen, Cat. No. 11095098) supplemented with 10% FBS (Invitrogen, Cat. No. 10099-141, Lot. No. 8153379). Then compounds that have been serial diluted were added in corresponding well and 10 μL Recombinant Human IFN-γF (Peprotech, Cat. No. 300-02) was added in each well except wells for Min (Medium containing 0.5% DMSO with cells). The mixture of cells were incubated at 37°C, 5% CO2 for 48 h. Then transferred 90 μL of supernatant to 96-well plate (CORNING, Cat. No. 3599) and store at −20°C fridge for colormetric analysis. The next day, 10 μL of 6.1 N trichloroacetic acid (Sigma, Cat. No. T0699) were added in each well after transferred 80 μL supernatant to 96-well plate (CORNING, Cat. No. 3894). Then the mixture was incubated at 50°C for 30 min. Sediments were removed by centrifuged for 10 min at 2,500 rpm. Seventy microliters of 70 μL of 2% (w/v) p-dimethylaminobenzaldehyde (Sigma-Aldrich, Cat. No. 15647-7) was added after 70 μL of the supernatant were transferred to assay plate (CORNING, Cat. No. 3635). Finally, OD-value was measured at 480 nm using an EnSpire (PE).

human IDO1 protein = target: T2, human IDO1 protein (Homo sapiens, UniProt P14902); test: Enzymatic IDO1 assay (Absorbance 321 assay); type: biochemical; conditions: for inhibition at 20 µM / Inhibition ratio (%) @ 20 μM: 20 μM compound; for inhibition at 20 µM: read-out: Inhibition ratio (%) @ 20 μM; for IC50: IDO1 enzymatic level; for Avg_Inh (%) @ 50uM: average inhibition, Table S2; for Background (%): background signal of the compound in the absorbance assay
T2 construct: purchased ChemPartner Lot; No. 20160706
T2 sequence (P14902 whole entry): as above
Experimental: The standard assay mixture contained modified potassium phosphate buffer at pH 6.5, 100 μM L-tryptophan (Sigma, Cat. […] No. […]). […] Then the assay plate was read at OD321 kinetically in Spectramax. […] Fit the data in […]5.0 software to obtain IC50-values using Equation (2): (2) Y=Bottom+Top-Bottom/1+10^(logIC50-X)×HillSlope where Y stands for inhibition percentage and X stands for compound concentration. All determinations were carried out in duplicate.

IDO1 = conditions: Figure 1, published IDO1 inhibitors, cited from earlier work

| Avg_Inh (%) @ 50uM (human IDO1 protein) [%] | Background (%) (human IDO1 protein) | SMILES | also measured |
| --- | --- | --- | --- |
| 82.33 | 55.25 | Clc1ccc(N2COc3ccc4ccccc4c3C2)cc1 [DC-I028] | IC50 (IDO1 in HeLa cells): 89.1 µM; inhibition at 20 µM (human IDO1 protein): 58%; Inhibition ratio (%) @ 50 μM (human IDO1 protein; 50 μM compound): 82%; IC50 (human IDO1 protein): 21.6 µM |
| 1.65 | 31.42 | CC(Oc1ccccc1)C(=O)N1CCc2ccccc21 (centres unmarked) [DCI-049] |  |
| 17.41 | 49.85 | COc1ccc(C(=O)c2c[nH]cc2-c2ccccc2)cc1 [DCI-059] |  |
| -2.26 | 35.32 | CCC(C(=O)Nc1cccc(C(C)O)c1)c1ccccc1 (centres unmarked) [DCI-082] |  |
| 98.78 | 66.01 | COc1ccc2ccccc2c1/C=C(\C#N)c1nc2ccccc2[nH]1 [DCI-026] |  |
| 21.71 | 35.63 | CCc1ccc(OCC(=O)Nc2ccccc2C(N)=O)c(Br)c1 [DCI-074] |  |
| 1.56 | 40.57 | COc1ccc2ccccc2c1CNc1ncn[nH]1 [DCI-092] |  |
| -6.47 | 41.00 | COc1ccc2ccccc2c1CNC(C)c1ccccc1 (centres unmarked) [DCI-091] |  |
| 77.96 | 50.53 | O=C(COc1ccc2ccccc2c1)Nc1cccc(Cl)c1 [DCI-086] |  |
| 20.11 | 40.12 | O=C(NCC1CCCO1)c1ccc(COc2ccc3ccccc3c2)cc1 (centres unmarked) [DCI-015] |  |
| 11.41 | 39.40 | Cc1c(-c2ccccc2)nc(-c2ccccc2)[nH]c1=O [DCI-045] |  |
| 63.18 | 44.38 | O=C(COC(=O)c1ccc2ccccc2n1)c1ccc(Cl)cc1 [DC-I046] | Inhibition ratio (%) @ 20 μM (human IDO1 protein): 28.10% |
| 43.35 | 40.50 | Cc1ccccc1C(=O)Oc1ccc2ccc(O)cc2c1 [DCI-076] |  |
| 24.55 | 53.30 | Cn1c(=O)c([N+](=O)[O-])c(Nc2ccc(Cl)cc2)c2ccccc21 [DCI-066] |  |

Further lines, the compound ahead of its results:

| SMILES | Avg_Inh (%) @ 50uM (human IDO1 protein) [%] | Background (%) (human IDO1 protein) | also measured |
| --- | --- | --- | --- |
| CCOc1cc(C(=O)NC(=S)Nc2c(O)ccc3ccccc23)cc(OCC)c1OCC [DC-I02806] |  |  | IC50 (IDO1 in HeLa cells): 18.2 µM; inhibition at 20 µM (human IDO1 protein): 75.3%; IC50 (human IDO1 protein): 18.7 µM |
| COc1ccc(C(=O)NC(=S)Nc2c(O)ccc3ccccc23)cc1Br [DC-I02805] |  |  | Hela / Cellular IC50 (IDO1 in HeLa cells): No activity; inhibition at 20 µM (human IDO1 protein): 54.7%; IC50 (human IDO1 protein): 13.7 µM |
| Cc1ccc(-c2csc3nnc(SCC(=O)Nc4ccc5c(c4)OCO5)n23)cc1 [Amg-1] |  |  | IC50 (IDO1; ref Meininger et al., 2011): 36 µM |
| O=C(NC(=S)Nc1c(O)ccc2ccccc12)c1ccccc1Br [DC-I02808] |  |  | IC50 (IDO1 in HeLa cells): 46.4 µM; inhibition at 20 µM (human IDO1 protein): 61.3%; IC50 (human IDO1 protein): 17.9 µM |
| Cc1ccc([N+](=O)[O-])cc1N1COc2ccc3ccccc3c2C1 [DC-I02804] |  |  | IC50 (IDO1 in HeLa cells): 98.4 µM; inhibition at 20 µM (human IDO1 protein): 39.1%; IC50 (human IDO1 protein): 27.8 µM |
| CC(=O)Nc1cccc2ccc3c(c12)CN(Cc1ccccc1)CO3 [DC-I02803] |  |  | inhibition at 20 µM (human IDO1 protein): -11.2%; IDO1 inhibitory activity (in words) (human IDO1 protein; SAR discussion): inactive |
| O=c1[nH]c(CN2CCOCC2)nc2ccccc12 [DCI-081] | -6.95 | 38.30 |  |
| COc1ccc(C(=O)NC(=S)Nc2cccc3cc(O)ccc23)cc1OC [DC-I02809] |  |  | inhibition at 20 µM (human IDO1 protein): 17.6% |
| CCCC1CCc2c(c3ccccc3[nH]c2=O)O1 (centres unmarked) [DCI-030] | 11.57 | 45.02 |  |
| COc1ccc(C2C(C#N)=C(N)Oc3n[nH]c(-c4ccc(Cl)cc4)c32)cc1O (centres unmarked) [DCI-098] | 4.10 | 35.87 |  |
| COc1ccc2oc(C(O)c3c(C)oc4ccc(OC)cc34)cc2c1 (centres unmarked) [DCI-056] | 55.55 | 43.42 |  |
| CC(=O)c1nc2ccccc2[nH]1 [DCI-037] | 24.85 | 60.63 |  |
| Cc1ccc(C)c(C(=O)CSc2ncnc3nc[nH]c23)c1 [DCI-013] | 4.76 | 38.66 |  |
| N#Cc1c(SCC(N)=O)nc2c(c1-c1cccnc1)CCC2 [DCI-007] | -0.85 | 44.80 |  |
| COc1cc(C(=O)Nc2ccc(S(N)(=O)=O)cc2)cc(OC)c1OC [DCI-088] | -0.32 | 43.06 |  |
| Cc1ccc(Cl)cc1N1COc2ccc3ccccc3c2C1 [DC-I02802] |  |  | IC50 (IDO1 in HeLa cells): 56 µM; inhibition at 20 µM (human IDO1 protein): 42.2%; IC50 (human IDO1 protein): 44.2 µM |

| SMILES | Avg_Inh (%) @ 50uM (human IDO1 protein) [%] | Background (%) (human IDO1 protein) | also measured |
| --- | --- | --- | --- |
| Nc1ncnc2sc3c(c12)CCC3 [DCI-001] | -9.13 | 42.64 |  |
| Cc1cc(C)c2c(N)c(C(=O)Nc3ccc(S(N)(=O)=O)cc3)sc2n1 [DCI-078] | -8.99 | 62.57 |  |
| Cc1cccc(-c2nnc(SCC(=O)Nc3c(C)cc(C)cc3C)o2)c1 [DC-I102] | 80.83 | 43.32 | Inhibition ratio (%) @ 20 μM (human IDO1 protein): 15.17% |
| CC(=O)c1ccc(N2COc3ccc4ccccc4c3C2)cc1 [DC-I02801] |  |  | inhibition at 20 µM (human IDO1 protein): 17.8% |
| Cc1cc(=O)oc2cc(OCC(O)Cn3c(C)nc4ccccc43)ccc12 (centres unmarked) [DCI-094] | -10.06 | 75.33 |  |
| O=C(c1ccc(OCCc2ccccc2)cc1)N1CCCC1 [DCI-093] | 2.13 | 35.52 |  |
| O=c1cnc2ccccc2n1Cc1cccc(Cl)c1 [DCI-010] | 18.26 | 46.13 |  |
| O=C1NN(c2ncnc3sc4c(c23)CCCC4)C(=O)c2cccc3cccc1c23 [DCI-064] | 6.57 | 36.33 |  |
| O=C(Nc1ccccc1OCC1CCCO1)NC1CCCCC1 (centres unmarked) [DCI-050] | 0.29 | 31.57 |  |
| Cc1cc(C)c2c(=O)cc(C(=O)Nc3cc(-c4ccc(F)cc4)no3)oc2c1 [DCI-060] | 79.74 | 59.25 |  |
| COc1cc2sc3c(=O)[nH]c4ccccc4c3c2cc1OC [DCI-029] | -6.51 | 40.56 |  |
| c1ccc2c3c(c(CN4CCCCC4)cc2c1)COC3 [DCI-062] | 8.78 | 33.45 |  |
| OC1Cc2ccccc2Sc2c(Cl)cccc21 (centres unmarked) [DCI-033] | 45.38 | 34.53 |  |
| O=C1c2ccccc2NC(c2cccc([N+](=O)[O-])c2)N1O (centres unmarked) [DCI-058] | 4.69 | 37.75 |  |
| Cc1sc2nn[nH]c(=O)c2c1C [DCI-027] | 43.67 | 56.25 |  |
| Cc1sc2ncnc(SCC(=O)Nc3ccc(S(N)(=O)=O)cc3)c2c1C [DCI-017] | 37.65 | 48.33 |  |
